Experimental data from patent US20140088045A1, “PRODUCT COMPRISING A NICOTINE-CONTAINING MATERIAL AND AN ANTI-CANCER AGENT” (priority 2012, published 2014).

Assays:
[1] = tested on: inflammation; details: applied systemically or topically; cited from earlier work
[2] = tested on: A549 human lung cancer cells; assay: A549 subcutaneous xenografts, PS V and erlotinib; format: in vivo, nude mice; details: by day 14; PS V 80 mg/kg ip, erlotinib 75 mg/kg po, 6 days/week; starting tumor volume subtracted
Excerpt: TO this end, we inoculated A549 human lung cancer cells subcutaneously into nude mice, following standard protocols.

[3] = tested on: NF-κB; assay: NF-κB activation in cultured cells by Electrophoretic Mobility Shift Assay (EMSA); format: cell-based, human; details: cultured A549 cells; 1-2× its IC50 concentration for 6 h
[4] = Drug levels in lungs and plasma after inhalation vs oral gavage; format: in vivo, mice
Excerpt: The oral dose was 23 times higher than the inhalational dose.

[5] = tested on: human cancer cells; assay: Cytotoxicity to human cancer cells; format: cell-based; details: intact PS V vs its three metabolites
[6] = tested on: A549 xenografts; assay: A549 subcutaneous xenografts, PS V and curcumin; format: in vivo, female nude mice; details: for inhibition of tumor growth (in words): A549 xenografts, daily treatment to day 36; for reduction in tumor weight: end of study, vs control
Description: Polymeric nanoparticles of poly(ε-caprolactone) (11000)-polyethylene glycol (5000) with entrapped curcumin were prepared according to the nanopercipitation-solvent displacement method. […] Then, the mice were inoculated subcutaneously on both flanks with […] cells (2×10^6 each). The treatment was resumed one day after tumor implantation and continued daily until the end of the study.

[7] = tested on: NF-κB; assay: NF-κB activation in orthotopic xenografts by immunohistochemistry; format: in vivo, nude mice; details: lung tissue of orthotopic A549 xenografts, PS V treatment as in Example 1
Description: We evaluated the effect of PS V on the activation of NF-κB, the master regulator of inflammation, in cultured A549 human lung cancer cells as well as in human lung cancer xenografts from the same cells.
We established orthotopic xenografts in nude mice as described in Example 1. Following treatment of the mice with PS V in a similar manner, lung tissue was evaluated by immunohistochemistry, following standard protocols. We used an antibody that assesses activation of NF-κB by phosphorylation (Cell Signaling, Danvers, Mass.). FIG. 10 provides inhibitory effect of PS V on the activation of NF-κB.

[8] = Aerosolization of compounds added to smoking tobacco (filter capture, HPLC); format: physicochemical; details: lit cigarette, alone or mixed with erlotinib
Description: We used an experimental system that recapitulates the essential features of the act of smoking (FIG. 8). In this apparatus, smoke from the lit cigarette was drawn through the tubing of the apparatus by external suction. […] The aerosolized test drug was deposited onto this filter. At the conclusion of the study, the filter was removed and the deposited test drug was extracted with acetonitrile and subjected to HPLC analysis, as already described.
FIG. 8. depicts the apparatus for the aerosolization of anticancer compounds. Upper panel: The test compound is added to the cigarette. […] When the system was turned on, the temperature in the heating chamber reached ˜200° C. Heating energy was provided by the battery through a resistance wire inside the heating chamber. Unimpeded flow of the gas phase in the ceramic chamber was allowed by its design; the arrows depict such flow.

[9] = mouse, in vivo, inhaled or intranasal
Description: (§1) After 8 min of inhalation treatment, BALB/c nude mice were euthanized at various time points. Drug levels were analyzed by HPLC in plasma and lung tissues.

[10] = Pharmacokinetic parameters after inhalational administration (HPLC, lung and plasma); details: after 8 min inhalation of PS V
Description: as §1

[11] = tested on: lung cancer; details: pre-clinical models of lung cancer; cited from earlier work

## CCOP(=O)(OCC)OCCCCOC(=O)c1ccccc1OC(C)=O [phospho-aspirin 119, phospho-aspirin]
[1]
  effect on inflammation: eliminated or greatly reduced inflammation

## C#Cc1cccc(Nc2ncnc3cc(OCCOC)c(OCCOC)cc23)c1 [erlotinib, reference compound]
[2]
  reduced tumor volume compared to controls: 74%

## CCOP(=O)(OCC)OCCCCOC(=O)CC1=C(C)/C(=C/c2ccc([S+](C)[O-])cc2)c2ccc(F)cc21 (stereo not drawn) [PS V, phospho-sulindac]
[3]
  NF-κB activation (EMSA): suppressed NF-κB activation
[1]
  effect on inflammation: eliminated or greatly reduced inflammation
[4]; inhalation 6.5 mg/kg compared to oral 150 mg/kg
  total drug levels (PS V plus its metabolites) in lungs: significantly higher
[4]; inhalational 6.5 mg/kg body weight
  level of intact PS V in lungs: > 20 nmol/g
[4]; oral 150 mg/kg body weight
  level of intact PS V in lungs: < 2 nmol/g
[4]; plasma
  PS levels in plasma: undetectable
[5]
  cytotoxicity compared with sulindac, sulindac sulfide XI and sulindac sulfone XII: more cytotoxic
[6]
  inhibition of tumor growth (in words): small inhibition of tumor growth
  reduction in tumor weight: 27%
[6]; day 36, PS V 200 mg/kg/d, curcumin 500 mg/kg/d, control 521±76 mm^3
  average tumor volume at the end of the study: 419±36 mm^3
[2]
  reduced tumor volume compared to controls: 49%
[7]
  activation of NF-κB (phosphorylation, immunohistochemistry): suppresses the activation of NF-κB

## CCOP(=O)(OCC)OCCCCNC(=O)C(C)c1ccc(CC(C)C)cc1 (stereo not drawn) [phospho-ibuprofen amide IV, phospho-ibuprofen amide]
[8]
  aerosolization when added to smoking tobacco: aerosolized successfully

## CC1=C(CC(=O)O)c2cc(F)ccc2/C1=C\c1ccc(S(C)(=O)=O)cc1 [Sulindac sulfone XII, sulindac sulfone]
[9]
  Cmax: 4.6 nmol/g

## CC1=C(CC(=O)O)c2cc(F)ccc2/C1=C\c1ccc([S+](C)[O-])cc1 (stereo not drawn) [Sulindac, sulindac]
[10]; lung
  Tmax: 0 h
[10]; plasma
  Tmax: 0 h

## COc1cc(/C=C/C(=O)CC(=O)/C=C/c2ccc(O)c(OC)c2)ccc1O [curcumin, reference compound]
[11]
  efficacy as a single agent: < 30%
[6]
  inhibition of tumor growth (in words): ineffective
  reduction in tumor weight: not in the curcumin-treated group
